In article PMC6201930 (PLoS ONE, 2018):
Values joined by “and” are separate entries in the source; they are usually repeats but may differ in a detail not shown here. Equal values may be shown once. Read-outs that look alike come from different tables or passages of the source.

Columns and labels:
primary mouse myoblasts = assay: Cytotoxicity in myoblasts; settings: read-out: Myoblast CC50
From the text: (§1) When considering compounds for potential readthrough therapy it is important to monitor cellular and animal safety. In order to determine the most promising compounds to further evaluate in in vivo safety, we measured cytotoxicity in two different cell types. We used activated human peripheral blood mononuclear cells (PBMCs) (Table 2 and Fig 2D and 2E). PBMCs are a primary cell that when activated with phytohaemagglutinin (PHA) expand quickly and are commonly used as an in vitro surrogate for rapidly growing cells in the human body to evaluate cytotoxicity. Prior to advancing compounds into human studies, safety evaluation in rodents is performed. As an in vitro surrogate for rodent toxicity, we used primary mouse myoblasts.

[1] = test system: p53 R213* UGA premature termination codon in HDQ-P1 mammary carcinoma cells; assay: HDQ-p53UGA213 readthrough assay (full-length p53, MSD immunoassay); type: cell-based, human
Protocol: We utilized HDQ-P1 mammary carcinoma cells, which are homozygous for R213*, a UGA premature termination codon in the gene for the tumor suppressor protein p53 [30]. […] Western blot hybridization and Meso Scale Discovery (MSD) immunoassay detection of p53 were done as previously described. […] Cells (45K per well) were grown in 96-well plates and treated with compounds for 24 hours. […] Cells were lysed with 60 μl per well of lysis buffer (20 mM Tris-HCL, pH 7.5, 1 mM EGTA, 1 mM EDTA,150 mM Nacl, 0.5% Triton X100) for one hour at room temperature and 30 μl of lysate per well were transferred to the coated plate and incubated overnight at 4 °C. […] Plates were then washed three times with PBS-T and 30 μl of 0.25 μ/ml goat anti-rabbit IgG-Sulfo-tag antibody (MSD) in TBS-C was added and incubated for 1 hour at room temperature. Plates were then washed three times with PBS-T and 150 μl read buffer (MSD) was added. Plates were read immediately in a SECTOR S 600 (MSD).

[2] = test system: zebrafish neuromasts (hair cells); assay: Neuromast toxicity assay (DASPEI staining)
Protocol: All neuromast cytotoxicity assays were done at Biobide–BBD Biophenix SL (Gipuzkoa, Spain). […] Compounds were tested at 5 doses. After 24 hours of exposure embryos were incubated in DASPEI (2-(4-(dimethylamino)styryl) -N-Ethylpyridinium Iodide) for neuromast staining. Images of each embryo were taken and neuromasts counted. A compound was classified as ototoxic when the number of neuromasts in the treated group was less than that in the untreated control group (One Way ANOVA, multiple comparisons vs. vehicle).

mouse cochlear explants = test system: mouse cochlear explants; design: method as in PMID 24251786; settings: obtained previously; cited from earlier work
[3] = test system: tGFP-CFTR542X-HA-HIS construct (codon 542 UGA) in 293H cells; assay: tGFP-542X readthrough assay (HA-HIS MSD immunoassay); type: cell-based, human
[4] = test system: activated human peripheral blood mononuclear cells (PBMCs); assay: Cytotoxicity in stimulated PBMCs (CellTitre-Glo ATP); settings: read-out: Stimulated PBMC CC50
From the text: as §1
Frozen human Peripheral Blood Mononuclear Cells (PBMCs) were obtained from […] (Alameda, CA, Cat# PB003F) from a single donor. […] Plates were incubated at 37°C with 5% CO2 for 4 hours prior to compound treatment. Compounds were serially diluted and added to the plates. Plates were incubated at 37°C, 5% CO2 incubator, for 72 hours prior to determinations of ATP levels. Cell viability was determined using a chemiluminescent assay to monitor adenosine triphosphate (ATP) levels in live cells (CellTitre-Glo; CTG; Promega, Cat#G7571). Methods were performed per the manufacturer’s instructions.

[5] = test system: fLuc mRNA harboring a UGA nonsense mutation at codon 190 (fLuc-190-NS); type: biochemical, rabbit
From the text: ThefLuc-190-NS assay is an in vitro rabbit reticulocyte lysate translation of an fLuc mRNA harboring a UGA nonsense mutation at codon 190 (fLuc-190-NS). It is believed that positively charged aminoglycosides are poorly taken up by cells, and we used this cell-free readthrough assay to eliminate the potential variable of cell uptake when measuring readthrough potency. […] Readthrough protein was detected using a HA-HIS MSD immunoassay described previously.
This cell-free translation assay used synthetic LUC mRNAs harboring an EMCV IRES and LUC codon 190-UGA premature stop codon prepared using the MegaScript in vitro transcription kit (Ambion). Translation reactions were done with the Rabbit Reticulocyte Lysate System (Promega) with 100 ng RNA and increasing concentrations of aminoglycosides. The amount of luminescence produced was determined after approximately 4 hours using a Viewlux CCD imager (Perkin-Elmer). Fold suppression over background was calculated as (aminoglycoside light units/PBS light units).

[6] = individual determinations (S1 File)
[7] = individual experiments (S1 File)
[8] = AVERAGE (S1 File), unit not given for EC5X
[9] = individual experiments (S1 File), unit not printed for EC5X (EC2X of the sheet in uM)

With `C[C@@H](O)C1O[C@H](O[C@@H]2C(N)C[C@@H](NC(=O)[C@@H](O)CCN)[C@@H](O)C2O[C@@H]2O[C@H](CN)[C@H](O)C2O)[C@@H](N)C(O)[C@@H]1O` (some centres unmarked) [NB84, reference compound] the CC50 (primary mouse myoblasts; AVERAGE (S1 File)) was 279 µM, the CC50 (primary mouse myoblasts; [6]) was 411 µM and 147 µM and the “HDQ-p53UGA213 EC2X” value ([1]; AVERAGE (S1 File)) was 16.6 µM. For the same compound, the HDQ-p53UGA213 max ([1]; AVERAGE (S1 File)) was 29.7, the “HDQ-p53UGA213 EC2X” value ([1]; concentration required to double the level of full-length p53 protein, average ± SD, at least three experiments, highest concentration 300 μM) was 17 ± 5 µM and the “HDQ-p53UGA213 EC2X” value [1, 7] was 20.31 µM and <15.63 µM and 17.59 µM and 8.82 µM and 19.52 µM. The HDQ-p53UGA213 max ([1]; individual experiments (S1 File), max fold) was 15.6 and 52.2 and 25.2 and 30.9 and 25.4 and 29, the “HDQ-p53UGA213 (Maxfold)” value ([1]; maximum readthrough activity above background, average ± SD) was 30 ± 12 fold and the CC50 ([2]; read-out: Neuromast (CC50), zebrafish embryos 5 dpf, 24 hours exposure, maximum of two measurements) was 8 ± 0.1 µM. For the same compound, the CC50 ([2]; read-out: Neuromast CC50, AVERAGE (S1 File)) was 7.9 µM, the CC50 ([2]; read-out: Neuromast CC50, individual determinations (S1 File)) was 7.8 µM and the CC50 (mouse cochlear explants) was 20 µM. For the same compound, the “tGFP-542X EC2X” value ([3]; 293H cells, 24 hours, average ± SD) was 38 ± 12 µM, the “tGFP-542X EC2X” value ([3]; AVERAGE (S1 File)) was 38.2 µM and the “tGFP-542X Maxfold” value ([3]; AVERAGE (S1 File)) was 110.3. For the same compound, the “tGFP-542X EC5X” value [3, 8] was 109.2, the “tGFP-542X EC2X” value [3, 7] was 25 µM and 46 µM and 44 µM and the “tGFP-542X Maxfold” value [3, 7] was 176 and 74 and 81. For the same compound, the “tGFP-542X EC5X” value [3, 9] was 67 and 132 and 128, the “tGFP-542X Maxfold” value ([3]; maximum readthrough above background, average ± SD) was 110 ± 57 fold and the CC50 ([4]; AVERAGE (S1 File)) was 440 µM. The CC50 [4, 6] was 536 µM and 1160 µM and 179 µM and 156 µM and 173 µM, the “fLuc-190-NS EC2X” value ([5]; AVERAGE (S1 File)) was 0.0453 µM and the “fLuc-190-NS MaxFold” value ([5]; AVERAGE (S1 File)) was 180.8. For the same compound, the “fLuc-190-NS EC5X” value [5, 8] was 0.1430, the “fLuc-190-NS EC2X” value ([5]; cell-free, average ± SD) was 0.045 ± 0.011 µM and the “fLuc-190-NS EC2X” value [5, 7] was 0.0389 µM and 0.0393 µM and 0.0578 µM. For the same compound, the “fLuc-190-NS MaxFold” value [5, 7] was 172.62 and 163.42 and 206.48 and the “fLuc-190-NS EC5X” value [5, 9] was 0.1461 and 0.1276 and 0.1554.
